These results are taken from ChEMBL document CHEMBL4665876, “Protection of all cleavable sites of DNA with the multiple CGCG or continuous CGG sites from the restriction enzyme, indicative of simultaneous binding of small ligands” (Bioorg Med Chem, 2020).

Calls of active or inactive are those of the source. No cut-off for these calls is given here.

Holding throughout (assay type): nucleic-acid assay
In experiment [1] the test system is Nucleic Acid. Briefly: Binding affinity to CGCG site of DNA (unknown origin) at 10 uM by PAGE analysis.
Experiment [2] relates to Nucleic Acid. In words: Binding affinity to GC5(5) of DNA (unknown origin) assessed as inhibition of ACCII mediated DNA hydrolysis at 10 to 50 uM preincubated for 14 hrs followed by ACCII addition and measured after 120 mins by SYBR staining-based PAGE analysis. Conditions: Homo sapiens; dose microM 10-50, time 14.0 hrs.
The test system of experiment [3] is Nucleic Acid. Briefly: Binding affinity to GC2(5) site of DNA (unknown origin) assessed as inhibition of ACCII mediated DNA hydrolysis at 50 uM preincubated for 14 hrs followed by ACCII addition and measured after 120 mins by SYBR staining-based PAGE analysis. The note with it: Homo sapiens.
For experiment [4], the system named is Nucleic Acid. In words: Binding affinity to GC1 of DNA (unknown origin) assessed as inhibition of ACCII mediated DNA hydrolysis at 50 uM preincubated for 14 hrs followed by ACCII addition and measured after 120 mins by SYBR staining-based PAGE analysis. The note with it: Homo sapiens.
The test system of experiment [5] is Nucleic Acid. Briefly: Binding affinity to GC5(5) of DNA (unknown origin) assessed as inhibition of ACCII mediated DNA hydrolysis at 1 uM preincubated for 14 hrs followed by ACCII addition and measured after 120 mins by SYBR staining-based PAGE analysis. Conditions: Homo sapiens, time 16.0 hrs.
Experiment [6] relates to Nucleic Acid. In words: Binding affinity to GC5(2) of DNA (unknown origin) assessed as inhibition of ACCII mediated DNA hydrolysis at 10 to 50 uM preincubated for 14 hrs followed by ACCII addition and measured after 120 mins by SYBR staining-based PAGE analysis. Conditions: Homo sapiens; dose microM 10-50, time 14.0 hrs.
The test system of experiment [7] is Nucleic Acid. In words: Binding affinity to d(CGG)16 of DNA (unknown origin) assessed as inhibition of Fnu4HI mediated DNA hydrolysis at 10 uM preincubated for 14 hrs followed by Fnu4HI addition and measured after 60 mins by SYBR staining-based PAGE analysis. The note with it: Homo sapiens.
Experiment [8] relates to Nucleic Acid. In words: Binding affinity to d(CGG)16 of DNA (unknown origin) assessed as inhibition of Fnu4HI mediated DNA hydrolysis at 25 uM preincubated for 14 hrs followed by Fnu4HI addition and measured after 60 mins by SYBR staining-based PAGE analysis. The note with it: Homo sapiens.
The subject of experiment [9] is Nucleic Acid. Briefly: Binding affinity to d(CGG)10 of DNA (unknown origin) assessed as inhibition of Fnu4HI mediated DNA hydrolysis at 25 uM preincubated for 14 hrs followed by Fnu4HI addition and measured after 60 mins by SYBR staining-based PAGE analysis. The note with it: Homo sapiens.
The subject of experiment [10] is Nucleic Acid. In words: Binding affinity to d(CGG) of DNA (unknown origin) assessed as inhibition of Fnu4HI mediated DNA hydrolysis preincubated for 14 hrs followed by Fnu4HI addition and measured after 60 mins by SYBR staining-based PAGE analysis. The note with it: Homo sapiens.

`O=C1CCCc2cc3cc(O)cc(O)c3c(O)c21`: in the experiment on Nucleic Acid [1], the outcome was inactive. On to `CCC[C@@H]1C(=O)c2c(cc3cc(OCCOCCOCC(=O)NO)cc(O)c3c2O)C[C@H]1C`, for which the outcome in the experiment on Nucleic Acid [1], in the experiment on Nucleic Acid [2] and with Nucleic Acid [3] was Active. Moreover, the result in the experiment on Nucleic Acid [4] was inactive. On to `CCC[C@@H]1C(=O)c2c(cc3cc(OCCOCCOCC(=O)O)cc(O)c3c2O)C[C@H]1C`, for which, in the experiment on Nucleic Acid [5], the result was Active. With `C[C@H]1CC(=O)c2c(cc3cc(O)cc(O)c3c2O)C1`, the result with Nucleic Acid [1] was inactive.

`CCC[C@@H]1C(=O)c2c(cc3cc(O)cc(O)c3c2O)C[C@H]1C`: the outcome in the experiment with Nucleic Acid [1] was inactive. `O=C(COCCOc1cc(O)c2c(O)c3c(cc2c1)CCCC3=O)NO`: the outcome in the experiment on Nucleic Acid [6] was Active.

In the case of `CCC[C@@H]1C(=O)c2c(cc3cc(OCCOCCOCCOC)cc(O)c3c2O)C[C@H]1C`, in the experiment with Nucleic Acid [5], the outcome was inactive. On to `C[C@H]1CC(=O)c2c(cc3cc(OCC(=O)NO)cc(O)c3c2O)C1`, for which the result in the experiment on Nucleic Acid [7] was Active. Further, the result with Nucleic Acid [1] was inactive. Consider `C[C@H]1CC(=O)c2c(cc3cc(OCCOCC(=O)NO)cc(O)c3c2O)C1`, for which the result in the experiment on Nucleic Acid [6], with Nucleic Acid [8] and in the experiment on Nucleic Acid [9] was Active. Turning to `C[C@H]1CC(=O)c2c(cc3cc(OCCOCCOCC(=O)NO)cc(O)c3c2O)C1`, the result in the experiment on Nucleic Acid [10] was inactive. Moreover, the outcome in the experiment on Nucleic Acid [1] and with Nucleic Acid [5] was Active.
